In US12616193B2, “5-(1H-indol-3-yl)-oxazole, -oxadiazole and -furan derivatives as enhancers of sperm motility” (SPERMATECH AS, priority 2020, dated 2026):
Where two headings read alike, the source gives them in different places.

Experiments:
sows [1] = assay: Field trial pilot study, artificial insemination of sows (Example 5); format: in vivo, pig
Experimental: A pilot field study included 27 sows of which 13 received untreated control sperm and 14 received sperm treated with Compound No. 1 (“activator”). Insemination doses were collected from the same animals during the course of the experiment and contained pooled semen from three individual boars. 45 μl 100 mM activator solution in DMSO was added to 89 ml boar sperm (final concentration of 50 μM) directly before insemination which was carried out within 15 to 45 min. The sperm was transferred to an insemination bottle and then the activator was added. After placing the insemination catheter into the cervix of the sow, the bottle was connected, and the sperm sample was released into the sow. The sows received insemination doses on two subsequent days. After 30 to 35 days the animals were sacrificed, the uteri were removed and embryos were counted for all […]. Organ material from 5 activator-receiving sows and 5 sows from the control group were optically inspected and samples from the uterus, cervix and vagina were formalin-fixated for histology examination. […] The formalin preparations were cut and stained with hematoxylin eosin for histological examination. The histopathological assessment included a thorough evaluation of the epithelium of the mucosa and the underlying lamina propria. In both the epithelium and lamina propria, particular emphasis was placed on acute changes. In the epithelium, the acute changes included single cell necrosis/apoptosis and infiltration of polymorphonuclear leukocytes. In the lamina propria, infiltration of polymorphonuclear leukocytes was considered as the most important acute change. […] Infiltration of lymphocytes in the epithelium and lamina propria was considered to be within the normal range of all individuals. Flattening and possibly loss of surface epithelium were partly difficult to assess. Edema and bleeding in the lamina propria were detected in several individuals. Heat and age are the denominators of leukocyte infiltration in sows and are considered normal. The average number of embryos was determined for the sows of the control group (n=11, 11 sows were in pig after insemination) and the activator-receiving group (n=13, 13 sows in pig after insemination).

sows [2] = assay: Field trial study, 441 sows (Example 6); format: in vivo, pig
Description: Following the success of the pilot study reported in Example 5, a larger field trial study was conducting which included 441 sows. 224 sows received untreated control sperm and 217 received sperm treated with Compound No. 1 (“activator”).

Human T-cells = assay: Genotoxicity, comet assay (Example 4); format: cell-based
Experimental: Human T-cells (four concentrations of Compound No. 1 including 0 μM; two exposure times) were embedded in 1% agarose, lysed in cold 2.5 M NaCl, 0.1 M EDTA, 10 mM Tris buffer, and 1% Triton X-100, pH 10. Incubation with dithiothreitol and lithium diiodosalicylate was followed by incubation in cold 0.3M NaOH, and 1 mM EDTA for 20 min and then electrophoresis at 0.8 V/cm for 20 min in a cold room. After neutralization with PBS, and staining with SYBRGold (Invitrogen), slides were scored using the Comet Assay IV image analysis programme (Perceptive Instruments).

boar sperm [3] = assay: Effect of long-term storage at 18° C. on boar sperm, activator freshly added (Example 2); format: cell-based
Experimental: The effect of Compound No. 1 (“activator”) on the shelf-life of boar sperm was evaluated. Compound No. 1 was freshly added to stored boar sperm aliquots. The sperm samples were stored as aliquots in Eppendorf tubes (995 μl) at 18° C. During the course of one week 5 μl 10 mM activator solution in DMSO (50 μM final concentration) was added to one aliquot and the resulting solution was incubated in a water bath at for 12 min at 37° C. Subsequently, 10 μl semen samples were taken out and added to a counting chamber slide, incubated for 2 min at 37° C. and analysed as described in Example 1.

boar sperm [4] = assay: Determination of boar sperm motility and progressive motility by CASA (Example 1); format: cell-based, Duroc boar; details: for EC50: 0.2 h, 12 min at 37° C., activation-% relative to DMSO-only control
Experimental: Duroc boar sperm samples were received from Norsvin AS and contained pooled semen from three individual boars. Semen samples were stored in Androstar® extender (mini-tube) at 18° C. prior to use. Compound No. 1 was tested in duplicates, using 2-fold serial dilutions including 10 individual concentrations starting from 100 μM. 995 μL semen were aliquoted in Eppendorf tubes and 5 μL of Compound No. 1 diluted in DMSO were added leading to the described final concentrations. The resulting semen samples were mixed gently and incubated for 12 min at 37° C. in a water bath. Subsequently, 10 μL of each semen sample was added to a counting chamber slide (Leja) and incubated on a plate incubator at 37° C. Sperm motility, progressive motility and curvilinear velocity were determined using a CASA (Hamilton Thorne), starting from 14 min. For each chamber A and B 15 individual frames were analysed and motility as well as progressive motility data was read out. The data were converted into activation-% using DMSO-only controls (set to 100% activity) by determining the percental increase of either motility or progressive motility relative to the control sample without added Compound No. 1. For the determination of EC50 values, data were fitted using Prism8 (non-linear fit, absolute IC50, x is concentration, graphpad.com).

[5] = tested on: mice oocytes contacted with mice sperm cells; assay: In vitro fertilization, mouse (Example 3); format: cell-based
Experimental: In vitro fertilization (IVF) studies were conducted to determine whether the activator compound No. 1 has any adverse effects on the fertilization process. Male mice were sacrificed, and the epididymis was opened to release the sperm into the appropriate buffer in a petri dish. The sperm cells were incubated with 50 μM of the activator compound for one hour before an aliquot was transferred to a petri dish containing oocytes. The cells were further incubated at 37° C. and 1-cell/2-cell eggs were counted after 24 hours. The experiment was performed in duplicates using sperm from the same epididymis and oocytes from two different mice.

[6] = 217 sows with treated sperm vs 224 sows with untreated control sperm
[7] = 50 μM added to boar sperm stored at 18° C. for 1 to 8 days, FIG. 2

For `O=C(CSc1nnc(-c2c[nH]c3ccccc23)o1)Nc1ccc2c(c1)OCO2` [Compound No. 1], the “optical inspection of organ material (cervix, uteri, vaginae)” value (sows [1]; 5 activator-receiving sows, 30 to 35 days after insemination with sperm treated at 50 μM) was “mostly normal mucosa and no signs of lesions”, the “sows in pig after insemination” value (sows [1]; of 14 sows receiving sperm treated at 50 μM (control 11 of 13)) was 13 and the “sows with abundant infiltration of polymorphonuclear leukocytes mostly in the cervix and uterus” value (sows [1]; of five sows in the activator group (control: one sow), histology) was “Three of the five sows”. For the same molecule, the “sows with necrosis/apoptosis detected” value (sows [1]; of five sows in the activator-receiving group (control: one), histology) was “one of the sows”, the “pregnancy rates in the sows” value (sows [1]; sperm treated at 50 μM vs untreated control sperm) was “increase pregnancy rates” and the “average increase of embryos per sow” value (sows [1]; vs control group, embryos counted after 30 to 35 days, FIG. 5) was 2 embryos per sows. The “average increase in live piglets born per sow” value (sows [2]; [6]) was about 1 live piglet born per sow, the “increase in pregnancy rate” value (sows [2]; [6]) was 5% and the “weaning to service interval (WSI)” value (sows [2]; treated vs untreated control sperm) was “improved the weaning to service interval”. The “% Tail DNA” value (Human T-cells; 0.5 hr exposure, 5 μM) was 0.2%, the “% Tail DNA” value (Human T-cells; 0.5 hr exposure, 50 μM) was 0.6% and the “% Tail DNA” value (Human T-cells; 0.5 hr exposure, 500 μM) was 0.4%. The “% Tail DNA” value (Human T-cells; 3 hr exposure, 5 μM) was 0.5%, the “% Tail DNA” value (Human T-cells; 3 hr exposure, 50 μM) was 0.1% and the “% Tail DNA” value (Human T-cells; 3 hr exposure, 500 μM) was 0.2%. The genotoxic effects (Human T-cells; up to 500 μM, 0.5 and 3 hr exposure) was “No genotoxic effects”, the “motility of stored sperm samples” value (boar sperm [3]; [7]) was “increases motility and progressive motility, even after 7 days of storage” and the “progressive motility of stored sperm samples” value (boar sperm [3]; [7]) was “increases motility and progressive motility, even after 7 days of storage”. For the same molecule, the “boar sperm shelf life” value (boar sperm [3]; 50 μM, storage at 18° C.) was “has a positive impact on boar sperm shelf life”, the EC50 (boar sperm [4]; n=6, read-out: Absolute EC50 motility) was 3.31 µM and the EC50 (boar sperm [4]; n=6, read-out: absolute EC50 progressive motility) was 11.2 µM. The motility (boar sperm [4]; FIG. 1B, n=4, up to 100 μM) was “increases both motility and progressive motility in a dose-dependent manner”, the progressive motility (boar sperm [4]; FIG. 1B, n=4, up to 100 μM) was “increases both motility and progressive motility in a dose-dependent manner” and the “interference with the fertilization process” value ([5]; 50 μM, mouse IVF) was “does not interfere with the fertilization process”. For the same molecule, the “fertility rates vs control” value ([5]; mouse sperm incubated with 50 μM for one hour, eggs counted after 24 hours) was “comparable to the control samples”.

In the case of `OO` [H2O2, reference compound], the “% Tail DNA” value (Human T-cells; Control+ treatment) is reported as 75.4%.
